Measurements from US9187459B2, “Quinazoline-7-ether compounds and methods of use” (NewGen Therapeutics, Inc., priority 2011, dated 2015).

Legend:
[1] = target: ErbB2 (HER2) (Homo sapiens (Human), UniProt P04626); assay: Kinase inhibition assay (TR-FRET, LanthaScreen), ErbB2 (HER2); format: biochemical; conditions: ATP 1 mM
Protocol: 1) The compound is dissolved in DMSO to prepare a 10 mM solution, and was diluted to 100 micoM with water. […] Kinase activity was determined with time-resolved Fret (TR-FRET) assay (LanthaScreen® kinase activity assay, from InVitrogen).
2) The assay is performed in a Black 384-well plate (from Corning). The kinase and the compound was incubated for […] at room temperature. ATP (1 mM) and fluorescein-poly GT were added, and the reaction was incubated for […]. Detection agent SA-XL665 (from Cisbio Assay) and TK Ab-Cryptate detection antibody (from InVitrogen) were added to stop the reaction.
3) The 384-well plate was sealed and incubated for 1 hour. The fluorescence was then measured at […] (Cryptate) and 665 nM (XL655) wavelength.
4) Each concentration of compound was done in triplicate, and vehicle (without compound) and a positive control were used.
Data process: the ratio of fluorescence is calculated (value of fluorescence 665 nM over […]). The results are calculated from: signal=compound fluorescence ratio−vehicle ratio, and the IC50 was calculated based on inhibition curve.

[2] = system: Human breast cancer BT474 cells; assay: Cell proliferation inhibition assay for BT474 (CCK-8); format: cell-based; conditions: BT-474, 72 h, text calls it EC50
Protocol: 1) Human breast cancer BT474 cells were plated 10000 cells/well in a 96-well clear tissue culture plate. The cells were incubated for 24 h at 37° C. to allow adherence.
2) A serials of concentrations of each compound (ranging from 30 uM to 0.16 nM, 5-fold dilution) in 96-well plate, and incubated for 72 h. Each concentration was tested in triplicate. During the cell proliferation assay, BT474 cells were cultured in the complete cell culture solution (low-glucose DMEM containing 5% FBS, 50 ug/ml gentamicin).
3) The culture medium was removed via aspiration, and the cell viability was detected by CCK-8 cell proliferation kit.
4) The EC50 was calculated based on the proliferation curve.

[3] = system: NCI-N87 xenograft; assay: In vivo efficacy in NCI-N87 xenograft mouse model
Protocol: NCI-N87 cell line was purchased from ATCC (American Type Culture Collection) and was cultured in RPMI1640+10% FBS+1% P/S antibiotics.
Male Balb/c nude mice, 6-8 week, 18±2 g (supplier: Shanghai SLAC Laboratory Animal Co. Ltd.) were used for the experiment. The purchased mice were adapted to the environment for 7 days before use, and were housed at 22-25° C. with humidity 40-70%, and light cycle with fluorescent light for 12-hour light (8:00-20:00) 12-hour dark. The mice have free access to food and water.
The cancer cells (NCI-N87) were implanted subcutaneous into the nude mice (right flank) with 5.0×10^6 cells in 0.1 ml PBS (50 mice). When the tumor size reaches a volume of 200 (150-200) mm^3, the tumor-bearing nude mice were randomly assigned into groups (10 mice/group), one group was served as vehicle, one group was administrated with Lapatinib ditosylate monoydrate (80 mg/kg, free base of Lapatinib, not salt, p.o. bid). The other two groups were administrated with NT112 (15 and 30 mg/kg, p.o. q.d, respectively). The administration period lasted for 4 weeks.
The mice were monitored twice daily for appearance and behavior, and for signs of morbidity and/or mortality. The tumor volume was measured twice a week, and the body weight was measured immediately before measuring the tumor volume throughout the whole study.
At end of the experiment (compound administration for four weeks), all the tumor-bearing mice were sacrificed by cervical dislocation under deep anesthesia. The tumor mass was resected, and weighed.
Tumor sizes were measured twice weekly in two dimensions using a caliper, and the volume was expressed in mm^3 using the formula: V=½×a×b^2 where a and b are the long and short diameters of the tumor, respectively. The tumor mass was weighed at the end of the experiment after harvested. V=½×a×b^2 (a, b is maximum and minimum diameters respectively). RTV(Relative Tumor Volume)=Vt/Vo • Vo is the tumor volume when the test article is initial administrated • Vt is the tumor volume of every measurement day after test article administration T/C(%)=TRTV/CRTV×100% • TRTV: RTV of test article-treatment group; CRTV: RTV of control group Inhibition rate (%)=(average tumor volume of control group−average cancer volume of test article treatment group)/average tumor volume of control group×100%

[4] = Pharmacokinetics studies in rats; format: in vivo, Sprauge Dawley rats; conditions: for bioavailability / AUC(0-inf) / AUC(0-t) / Cmax / clearance / half-life / Vd: male, Sprague-Dawley; for bioavailability: plasma, rat; for AUC(0-inf) / AUC(0-t) / Cmax / clearance / half-life / Vd / CL / Vz: rat plasma; for Vd: read-out: Vz
Protocol: (§1) The test article each was dissolved in 10% DMSO and 90% of (40% HP-β-CD in deionized water) to yield concentration at 0.4 mg/mL for intravenous administration, and 1 mg/mL for oral administration.
(§2) Method development and plasma samples analysis were performed by Analytical Sciences Division of the Testing Facility by means of LC-MS/MS. The analytical results were confirmed using quality control samples for intra-assay variation (within day variation). The accuracy of >66% of the quality control samples was between 80-120% of the known value(s).
Each group consisted 3 male Sprauge Dawley rats (7-8 week old, 200-300 g body weight). The test articles were administered by a single bolus intravenous injection via the lateral tail vein or via oral gavage.
Blood samples (approximately 300 μl) were collected via retro-orbital puncture after anaesthesia using mixed gas (CO2:O2=7:3) into tubes containing EDTA-K3 anticoagulant at appropriate time points. 10 time points (Groups 1-2): Pre-dose and post-dose at 5 min, 15 min, 30 min, 1 h, 2 h, 4 h, 6 h, 8 h and 24 h.
The PK blood samples were processed and analyzed using the same methods as in Example 10.

[5] = Pharmacokinetics studies in mice; format: in vivo, CD-1 mice; conditions: for bioavailability: CD-1, plasma, mouse; for AUC(0-inf) / AUC(0-t) / Cmax / half-life / MRT: CD-1, mouse plasma
Protocol: as §1, §2
Each group is consisted 30 CD-1 mice (supplied by Sino-British SIPPR/BK Lab. Animal Ltd., Co, Shanghai), 5-8 week old, 20-28 g body weight. The test articles were administered by a single bolus intravenous injection or via oral gavage.
Any animals in poor health were identified for further monitoring or possible euthanasia.
Blood samples (at least 300 μL/sample) were collected via cardiac puncture after euthanasia by carbon dioxide inhalation at appropriate time points for determination of the plasma concentrations of the test article. Samples were placed in tubes containing K3-EDTA and stored on ice until centrifuged.
Three mice in each group were used for blood collection at each of the 10 time points (Groups 1-10): Pre-dose and post-dose at 5 min, 15 min, 30 min, 1 h, 2 h, 4 h, 6 h, 8 h and 24 h.
The PK blood samples were centrifuged at approximately 8000 rpm for 6 minutes at 2-8° C. and the resulting plasma were separated and stored frozen at approximately −80° C. (following separation, the plasma may be initially placed on ice prior to being stored in the −80° C. freezer). All the plasma samples were labeled with detailed information such as study number, animal number, matrix, time points of collection and date of collection.
Standard set of parameters including Area Under the Curve (AUC(0-t) and AUC(0-∞)), elimination half-live (T1/2), maximum plasma concentration (Cmax), time to reach maximum plasma concentration (Tmax), clearance (CL), and volume of distribution (Vz) were calculated using noncompartmental analysis modules in FDA certified pharmacokinetic program WinNonlin Professional v5.2 (Pharsight, USA) by the Study Director. Furthermore, the Bioavailability was estimated using the following formula:
• AUC(0-t) Area under the curve from the time of dosing to the last measurable concentration • AUC(0-∞) Area under the curve from the time of dosing extrapolated to infinity, based on the last observed concentration • CL Total body clearance, CL=Dose/AUC • Cmax Maximum observed concentration, occurring at Tmax • F Bioavailability • MRT(0-∞) Mean residence time from the time of dosing to infinity • Tmax Time of maximum observed concentration • T1/2 Terminal half-life=ln(2)λz • Vz Volume of distribution based on the terminal phase

Sequence of ErbB2 (HER2) (P04626 23-1255): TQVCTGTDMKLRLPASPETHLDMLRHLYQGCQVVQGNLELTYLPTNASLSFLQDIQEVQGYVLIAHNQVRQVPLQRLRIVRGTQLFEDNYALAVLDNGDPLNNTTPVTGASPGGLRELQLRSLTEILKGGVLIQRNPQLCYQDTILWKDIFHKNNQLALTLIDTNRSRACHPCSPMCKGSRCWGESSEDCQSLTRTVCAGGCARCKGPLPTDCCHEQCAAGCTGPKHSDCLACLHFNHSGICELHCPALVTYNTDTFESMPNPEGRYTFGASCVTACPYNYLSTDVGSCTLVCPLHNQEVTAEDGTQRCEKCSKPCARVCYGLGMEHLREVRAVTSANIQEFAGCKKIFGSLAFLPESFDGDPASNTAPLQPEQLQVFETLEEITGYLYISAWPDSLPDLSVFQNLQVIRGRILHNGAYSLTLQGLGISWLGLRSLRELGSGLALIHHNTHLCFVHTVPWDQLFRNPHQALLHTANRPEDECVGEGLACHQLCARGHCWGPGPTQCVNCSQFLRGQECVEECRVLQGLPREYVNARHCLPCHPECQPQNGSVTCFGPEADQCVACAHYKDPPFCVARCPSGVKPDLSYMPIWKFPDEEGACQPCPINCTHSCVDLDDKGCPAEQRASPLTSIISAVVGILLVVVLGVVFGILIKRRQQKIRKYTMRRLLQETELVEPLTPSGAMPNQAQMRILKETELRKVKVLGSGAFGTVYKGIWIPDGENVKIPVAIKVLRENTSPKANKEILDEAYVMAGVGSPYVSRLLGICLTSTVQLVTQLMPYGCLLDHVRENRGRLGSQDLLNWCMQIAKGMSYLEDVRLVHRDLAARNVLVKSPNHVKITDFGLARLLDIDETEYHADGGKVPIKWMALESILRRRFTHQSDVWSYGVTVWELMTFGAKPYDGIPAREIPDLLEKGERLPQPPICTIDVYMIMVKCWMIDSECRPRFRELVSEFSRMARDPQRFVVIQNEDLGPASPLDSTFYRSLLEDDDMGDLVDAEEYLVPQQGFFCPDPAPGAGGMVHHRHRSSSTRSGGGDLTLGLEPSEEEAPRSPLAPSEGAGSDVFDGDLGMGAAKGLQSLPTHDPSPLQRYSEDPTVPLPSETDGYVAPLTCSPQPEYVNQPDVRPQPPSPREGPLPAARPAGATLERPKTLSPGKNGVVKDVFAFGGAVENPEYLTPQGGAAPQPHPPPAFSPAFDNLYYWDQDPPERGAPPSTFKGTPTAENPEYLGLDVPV

## CO[C@@H]1CO[C@@H]2[C@H]1OC[C@@H]2Oc1cc2ncnc(Nc3ccc(F)c(Cl)c3)c2cc1NC(=O)/C=C/CN(C)C [Example 1, (E)-N-(7-((3R,3aS,6S,6aS)-hexahydro-3-methoxyfuro[3,2-b]furan-6-yloxy)-4-(3-chloro-4-fluorophenylamino)quinazolin-6-yl)-4-(dimethylamino)but-2-enamide]
[1]
  IC50: 0.025 µM
[2]
  IC50: 0.0359 µM

## CN(C)C/C=C/C(=O)Nc1cc2c(Nc3ccc(F)c(Cl)c3)ncnc2cc1OCC1C2COCC21 (stereo not shown) [Example 2, (E)-N-(7-((3-oxa-bicyclo[3.1.0]hexan-6-yl)methoxy)-4-(3-chloro-4-fluorophenylamino)quinazolin-6-yl)-4-(dimethylamino)but-2-enamide]
[1]
  IC50: 0.006 µM
[2]
  IC50: 0.0191 µM

## CN(C)C/C=C/C(=O)Nc1cc2c(Nc3ccc(F)c(Cl)c3)ncnc2cc1OC[C@]12COC[C@H]1C2 [Example 3, (E)-N-(7-(((1S,5S)-3-oxa-bicyclo[3.1.0]hexan-1-yl)methoxy)-4-(3-chloro-4-fluorophenylamino)quinazolin-6-yl)-4-(dimethylamino)but-2-enamide]
[1]
  IC50: 0.023 µM
[2]
  IC50: 0.0318 µM

## CN(C)C/C=C/C(=O)Nc1cc2c(Nc3ccc(F)c(Cl)c3)ncnc2cc1OC[C@@]12COC[C@@H]1C2 [Example 4, (E)-N-(7-(((1R,5R)-3-oxa-bicyclo[3.1.0]hexan-1-yl)methoxy)-4-(3-chloro-4-fluorophenylamino)quinazolin-6-yl)-4-(dimethylamino)but-2-enamide]
[1]
  IC50: 0.022 µM
[2]
  IC50: 0.0256 µM

## CS(=O)(=O)CCNCc1ccc(-c2ccc3ncnc(Nc4ccc(OCc5cccc(F)c5)c(Cl)c4)c3c2)o1 [Lapatinib, reference compound]
[3]; day 7, 80 mg/kg p.o. bid
  RTV T/C: 31%
  tumor growth inhibition rate: 69%
[3]; day 28 (last day of the study), 80 mg/kg p.o. bid
  tumor inhibition rate: 92.9%

## CN(C)C/C=C/C(=O)Nc1cc2c(Nc3ccc(F)c(Cl)c3)ncnc2cc1OC[C@H]1[C@@H]2COC[C@@H]21 [NT112]
[3]; 15 mg/kg po qd, 4 weeks
  side effect: without predefined side effect
[3]; 30 mg/kg p.o. qd, 7 days/week, onset day 3, maximal day 11, dosing stopped, recovered by day 28
  body weight change: led to body weight loss
[3]; day 7, 15 mg/kg po qd
  RTV T/C: < 30%
  tumor growth inhibition: > 70%
[3]; day 7, 30 mg/kg po qd
  RTV T/C: < 30%
  tumor growth inhibition: > 70%
[4]; IV 1 mg/Kg (reference)
  bioavailability: 100%
[4]; po, 5 mg/kg
  bioavailability: 68%
[4]; IV 1 mg/Kg
  AUC(0-inf): 248 ng·h/mL
  AUC(0-t): 220 ng·h/mL
  Cmax: 59.3 ng/mL
  clearance: 67.2 mL/min/kg
  half-life: 6.05 h
  Vd: 10.6 L/kg
[4]; PO 5 mg/Kg
  AUC(0-inf): 843 ng·h/mL
  AUC(0-t): 434 ng·h/mL
  Cmax: 74.9 ng/mL
  half-life: 20 h
  CL: 98.8 mL/min/kg
  Vz: 51.55 L/kg
[4]; oral administration
  exposure and oral bioavailability with oral administration, compared to afatinib: higher exposure and better oral bioavailability
[5]; IV 1 mg/Kg (reference)
  bioavailability: 100%
[5]; PO 5 mg/Kg
  bioavailability: 49.7%
  AUC(0-inf): 1470 ng·h/mL
  AUC(0-t): 1420 ng·h/mL
  Cmax: 272 ng/mL
  half-life: 11.1 h
[5]; IV 1 mg/Kg
  AUC(0-inf): 592 ng·h/mL
  AUC(0-t): 575 ng·h/mL
  Cmax: 236 ng/mL
  half-life: 4.44 h

## CN(C)C/C=C/C(=O)Nc1cc2c(Nc3ccc(F)c(Cl)c3)ncnc2cc1O[C@H]1CCOC1 [afatinib, reference compound]
[4]; IV 1 mg/Kg (reference)
  bioavailability: 100%
[4]; po, 5 mg/kg
  bioavailability: 44.7%
[4]; IV 1 mg/Kg
  AUC(0-inf): 147 ng·h/mL
  AUC(0-t): 137 ng·h/mL
  Cmax: 55.6 ng/mL
  clearance: 114 mL/min/kg
  half-life: 5.12 h
  Vd: 15.2 L/kg
[4]; PO 5 mg/Kg
  AUC(0-inf): 328 ng·h/mL
  AUC(0-t): 215 ng·h/mL
  Cmax: 49.2 ng/mL
  half-life: 11 h
  CL: 254.3 mL/min/kg
  Vz: 73.02 L/kg
[5]; IV 1 mg/Kg (reference)
  bioavailability: 100%
[5]; PO 5 mg/Kg
  bioavailability: 62%
  AUC(0-t): 167 ng·h/mL
  Cmax: 17.6 ng/mL
  MRT: 9.3 h
[5]; IV 1 mg/Kg
  AUC(0-t): 54 ng·h/mL
  Cmax: 109 ng/mL
  MRT: 1.6 h
